Test results reported in the supplement of paper PMC7695840.
Counter-ions that a name gives are not always drawn.

Assays:
[1] = test system: Staphylococcus aureus MW2 delta-mecA (mecA-); assay: IC50 (growth, competition assay); conditions: cefoxitin: subinhibitory
Procedure, shortened: (§1)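 Pre-induced, 1:1-mixed fluorescent S. aureus MW2 mecA+ and ΔmecA strains were grown 20 h at 37 °C, 90% humidity, unshaken, in LB with a daily-set subinhibitory cefoxitin dose, in 1536-well plates. Compounds were given on five- or nine-point 2-fold gradients, in two dye-swapped replicates. DsRed (540/590) and GFP (485/520) were scaled per plate between single-strain control medians, with No Treatment then set to 0.5. Per-strain IC50 was the dose halving the No Treatment signal, or the maximal signal.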

[2] = test system: Staphylococcus aureus MW2 (mecA+); assay: IC50 (growth, competition assay); conditions: cefoxitin: subinhibitory
Procedure, shortened: as §1

Compound | IC50 ([1]; fluorescent label: DsRed) [µM] | IC50 ([1]; fluorescent label: GFP) [µM] | IC50 ([2]; fluorescent label: DsRed) [µM] | IC50 ([2]; fluorescent label: GFP) [µM]
O=C(CCCCCN1CCN(c2ccccc2-c2ccccc2)CC1)NC1CCCc2ccccc21 (stereo unspecified) [LP 12 hydrochloride hydrate] | < 9.85 | < 9.85 | 17.2 | 23.3
Oc1c(I)cc(I)c2cccnc12 [IOQUIN] | < 9.85 | < 9.85 | 20.7 | 17.8
C[C@H]1c2cccc(O)c2C(=O)C2=C(O)[C@]3(O)C(=O)C(C(N)=O)=C(O)[C@@H](N(C)C)[C@@H]3[C@@H](O)[C@@H]21 [PERIOSTAT] | < 9.85 | < 9.85 | < 9.85 | < 9.85
CCN1C[C@H](C)n2c(c(O)c3c(=O)n(Cc4ccc(F)c(Cl)c4)nc(C(=O)NC)c32)C1=O [MK-2048] | 39.3 | 40.9 | 80.3 | 64
Cn1nnnc1SCC1=C(C(=O)O)N2C(=O)[C@@H](NC(=O)[C@H](O)c3ccccc3)[C@H]2SC1 [CEFAMANDOLE SODIUM] | < 9.85 | < 9.85 | 53.2 | 52.5
CNc1ccc2oc(C[C@H]3O[C@@]4(CC[C@H]3C)O[C@H]([C@H](C)C(=O)c3ccc[nH]3)[C@H](C)C[C@H]4C)nc2c1C(=O)O [Calcimycin] | < 9.85 | < 9.85 | < 9.85 | < 9.85
CC[C@H]1OC(=O)[C@H](C)[C@@H](O[C@H]2C[C@@](C)(OC)[C@@H](O)[C@H](C)O2)[C@H](C)[C@@H](O[C@@H]2O[C@H](C)C[C@H](N(C)C)[C@H]2O)[C@](C)(O)C[C@@H](C)/C(=N\OCOCCOC)[C@H](C)[C@@H](O)[C@]1(C)O [RULIDE] | < 9.85 | < 9.85 | < 9.85 | < 9.85
CN(C)C(=O)C(CCN1CCC(O)(c2ccc(Cl)cc2)CC1)(c1ccccc1)c1ccccc1 [Loperamide hydrochloride] | 31.4 | 39 | 103 | 109
CN(C)C(=S)SSC(=S)N(C)C [REZIFILM] | 18.2 | 23.6 | 33.4 | 63.6
C[C@@H]1CN(c2c(F)c(N)c3c(=O)c(C(=O)O)cn(C4CC4)c3c2F)C[C@H](C)N1 [Sparfloxacin] | < 0.498 | < 0.498 | 0.78 | 0.746
CO/N=C(\C(=O)N[C@@H]1C(=O)N2C(C(=O)O)=C(COC(C)=O)CS[C@H]12)c1csc(N)n1 [Cefotaxime sodium] | < 9.85 | < 9.85 | < 9.85 | < 9.85
COC(=O)Nc1nc2cc(C(=O)c3cccs3)ccc2[nH]1 [Nocodazole] | < 9.85 | < 9.85 | 24.4 | 29
Cc1onc(-c2ccccc2Cl)c1C(=O)N[C@@H]1C(=O)N2[C@@H]1SC(C)(C)[C@@H]2C(=O)O [TEGOPEN] | < 9.85 | < 9.85 | < 9.85 | < 9.85
Clc1ccc(C(c2ccc(Cl)cc2)[n+]2ccn(CC(OCc3ccc(Cl)cc3Cl)c3ccc(Cl)cc3Cl)c2)cc1 (stereo unspecified) [Calmidazolium chloride] | < 9.85 | < 9.85 | < 9.85 | < 9.85
C=C[C@](C)(O)CC[C@@H]1[C@@]2(C)CCCC(C)(C)[C@@H]2CC[C@@]1(C)O [SCLAREOL] | < 9.85 | < 9.85 | 31.4 | 28.9
CC(C)c1c(O)ccc2c1CC[C@H]1[C@@](C)(CO)CCC[C@]21C [19-HYDROXYTOTAROL] | 107 | 65.8 | 77.4 | 111
CCN1CCN(C(=O)N[C@@H](C(=O)N[C@@H]2C(=O)N3[C@@H]2SC(C)(C)[C@@H]3C(=O)O)c2ccccc2)C(=O)C1=O [PIPRACIL] | < 9.85 | < 9.85 | 26.8 | 25.2
Cc1cc(C(C)(C)CC(C)(C)C)ccc1OCCOCC[N+](C)(C)Cc1ccccc1 [DELAVAN] | < 9.85 | < 9.85 | < 9.85 | < 9.85
O=c1[nH]c(=O)n([C@H]2C[C@H](O)[C@@H](CO)O2)cc1F [FLOXURIDINE] | < 9.85 | < 9.85 | < 9.85 | < 9.85
Cc1cc(Nc2ncc(Cl)c(Nc3ccccc3S(=O)(=O)C(C)C)n2)c(OC(C)C)cc1C1CCNCC1 [Ceritinib (LDK378)] | < 9.85 | < 9.85 | 29 | 27.7
CCCCCCCCCCCCCCCC[N+](C)(C)C [CETAB] | < 9.85 | < 9.85 | < 9.85 | < 9.85
CC[C@H]1OC(=O)[C@H](C)[C@@H](O[C@H]2C[C@@](C)(OC)[C@@H](O)[C@H](C)O2)[C@H](C)[C@@H](O[C@@H]2O[C@H](C)C[C@H](N(C)C)[C@H]2O)[C@](C)(OC)C[C@@H](C)C(=O)[C@H](C)[C@@H](O)[C@]1(C)O [BIAXIN] | < 9.85 | < 9.85 | < 9.85 | < 9.85
O=S(=O)(O)c1cc(I)c(O)c2ncccc12 [YATREN] | 49.8 | 59.8 | 84.9 | 102
CO[C@H]1/C=C/O[C@@]2(C)Oc3c(C)c(O)c4c(c3C2=O)C2=NC3(CCN(CC(C)C)CC3)NC2=C(NC(=O)/C(C)=C\C=C\[C@H](C)[C@H](O)[C@@H](C)[C@@H](O)[C@@H](C)[C@H](OC(C)=O)[C@@H]1C)C4=O [Rifabutin] | < 0.498 | < 0.498 | < 0.498 | < 0.498
CC1CCc2cc(F)cc3c(=O)c(C(=O)O)cn1c23 (stereo unspecified) [Flumequine] | < 9.85 | < 9.85 | < 9.85 | < 9.85
O=C(O)c1cccnc1Nc1cccc(C(F)(F)F)c1 [Niflumic acid] | 25.8 | 32.3 | 18.5 | 21.4
C/C(=C\C(=O)OCCCCCCCCC(=O)O)C[C@@H]1OC[C@H](C[C@@H]2O[C@H]2[C@@H](C)[C@H](C)O)[C@@H](O)[C@H]1O [BACTROBAN] | < 9.85 | < 9.85 | < 9.85 | < 9.85

Compound | IC50 ([1]; fluorescent label: DsRed) [µM] | IC50 ([1]; fluorescent label: GFP) [µM] | IC50 ([2]; fluorescent label: DsRed) [µM] | IC50 ([2]; fluorescent label: GFP) [µM]
COc1cc(/C=C/C(=O)CC(=O)/C=C/c2ccc(O)c(OC)c2)ccc1O [CURCUMIN] | < 9.85 | < 9.85 | 26.8 | 50.1
COC(=O)C1=C(C)NC(C)=C(C(=O)OCCCN2CCC(c3ccccc3)(c3ccccc3)CC2)[C@H]1c1cccc([N+](=O)[O-])c1 [S-(+)-Niguldipine hydrochloride] | < 9.85 | < 9.85 | < 9.85 | 11.4
Clc1ccc(CO/N=C(\Cn2ccnc2)c2ccc(Cl)cc2Cl)c(Cl)c1 [OXISTAT] | 30.4 | 17.3 | 35.3 | 43.3
N[C@@H]1[C@H]2CN(c3nc4c(cc3F)c(=O)c(C(=O)O)cn4-c3ccc(F)cc3F)C[C@@H]12 [Trovafloxacin mesylate] | < 9.85 | < 9.85 | < 9.85 | < 9.85
Cn1sc(=O)n(Cc2ccccc2)c1=O [TDZD-8] | < 9.85 | < 9.85 | < 9.85 | < 9.85
CCn1cc(C(=O)O)c(=O)c2cc(F)c(N3CCNC(C)C3)c(F)c21 (stereo unspecified) [Lomefloxacin hydrochloride (Maxaquin)] | 0.56 | < 0.498 | 1.76 | 1.78
Cc1onc(-c2ccccc2Cl)c1C(=O)N[C@@H]1C(=O)N2[C@@H]1SC(C)(C)[C@@H]2C(=O)O [Cloxacillin sodium] | < 9.85 | < 9.85 | < 9.85 | < 9.85
c1ccc2c(Cc3c[nH]c4ccccc34)c[nH]c2c1 [3,3'-DIINDOLYLMETHANE] | 21.7 | 21.4 | 67.4 | 105
CCCCCCCCCCCCCCCC(=O)OC[C@H](O)[C@H]1OC(=O)C(O)=C1O [EMPROVE] | < 9.85 | < 9.85 | 52.5 | 87.6
O=C(O)c1ccc(Nc2ncc3c(n2)-c2ccc(Cl)cc2C(c2c(F)cccc2F)=NC3)cc1 [MLN8054] | 3.89 | 2.45 | 13.7 | 24.9
Cc1cc(N)c2ccccc2[n+]1CCCCCCCCCC[n+]1c(C)cc(N)c2ccccc21 [FLUOMIZIN] | < 9.85 | < 9.85 | 13.2 | 12.2
CC[C@H]1OC(=O)C[C@@H](O)[C@H](C)[C@@H](O[C@@H]2O[C@H](C)[C@@H](O[C@H]3C[C@@](C)(O)[C@@H](O)[C@H](C)O3)[C@H](N(C)C)[C@H]2O)[C@@H](CC=O)C[C@@H](C)C(=O)/C=C/C(C)=C/[C@@H]1CO[C@@H]1O[C@H](C)[C@@H](O)[C@@H](OC)[C@H]1OC [TYLAN] | < 9.85 | < 9.85 | < 9.85 | < 9.85
CN[C@@H]1C[C@@H](c2ccc(Cl)c(Cl)c2)c2ccccc21 [Indatraline hydrochloride] | 36.2 | 52.3 | 70.1 | 98.4
Cc1ccc(S(=O)(=O)N[C@@H](Cc2ccccc2)C(=O)CCl)cc1 [N-p-Tosyl-L-phenylalanine chloromethyl ketone] | < 9.85 | < 9.85 | < 9.85 | < 9.85
COc1c(N2CCNC(C)C2)c(F)cc2c(=O)c(C(=O)O)cn(C3CC3)c12 (stereo unspecified) [TEQUIN] | < 9.85 | < 9.85 | < 9.85 | < 9.85
NC(=O)N/N=C/c1ccc([N+](=O)[O-])o1 [ACTIN-N] | 10.5 | < 9.85 | 16.2 | 15
Cc1cc2c(C(C)C)c(O)c(O)c(C=O)c2c(O)c1-c1c(C)cc2c(C(C)C)c(O)c(O)c(C=O)c2c1O [Gossypol] | < 9.85 | < 9.85 | < 9.85 | < 9.85
[O-][n+]1ccccc1[S-].[O-][n+]1ccccc1[S-].[Zn+2] [ZINC OMADINE] | < 9.85 | < 9.85 | < 9.85 | < 9.85
N=C(N)c1ccc(OCCCCCOc2ccc(C(=N)N)cc2)cc1 [NEBUPENT] | 14.5 | 13.7 | 16.2 | 23.6
CC(C)(C)CC(C)(C)c1ccc(OCCOCC[N+](C)(C)Cc2ccccc2)cc1 [PHEMERIDE] | < 9.85 | < 9.85 | < 9.85 | < 9.85
Oc1ccc2ccccc2c1SSc1c(O)ccc2ccccc12 [IPA-3] | < 9.85 | < 9.85 | < 9.85 | < 9.85
CC(C)=CCC[C@]1(C)C=Cc2c(O)c3c(c(CC=C(C)C)c2O1)O[C@]12C(=C[C@@H]4C[C@H]1C(C)(C)O[C@@]2(C/C=C(/C)C(=O)O)C4=O)C3=O [GAMBOGIC ACID] | < 9.85 | < 9.85 | < 9.85 | < 9.85
CO/N=C(\C(=O)N[C@@H]1C(=O)N2C(C(=O)O)=C(COC(C)=O)CS[C@H]12)c1csc(N)n1 [CLAFORAN] | < 9.85 | < 9.85 | 15.6 | 15
CN(Cc1cnc2nc(N)nc(N)c2n1)c1ccc(C(=O)N[C@@H](CCC(=O)O)C(=O)O)cc1 [Abitrexate (Methotrexate)] | 36.3 | 31.5 | 115 | 103
C=C(NC(=O)C(=C)NC(=O)c1csc(C2=N[C@@H]3c4csc(n4)[C@H]4NC(=O)c5csc(n5)[C@H]([C@](C)(O)[C@@H](C)O)NC(=O)[C@H]5CSC(=N5)/C(=C/C)NC(=O)[C@H]([C@@H](C)O)NC(=O)c5csc(n5)[C@]3(CC2)NC(=O)[C@H](C)NC(=O)C(=C)NC(=O)[C@H](C)NC(=O)[C@H]([C@@H](C)CC)N[C@@H]2C=Cc3c([C@H](C)O)cc(nc3[C@H]2O)C(=O)O[C@@H]4C)n1)C(N)=O [BRYAMYCIN] | < 9.85 | < 9.85 | < 9.85 | < 9.85
Cc1cc(O)c(C(=O)N[C@@H](C(=O)N[C@@H]2C(=O)N3C(C(=O)O)=C(CSc4nnnn4C)CS[C@H]23)c2ccc(O)cc2)cn1 [CEFPIRAN] | < 9.85 | < 9.85 | < 9.85 | < 9.85
CCCCCCCCCCCCCCC[C@H](O)[C@H](N)CO (racemic) [DL-erythro-Dihydrosphingosine] | < 9.85 | < 9.85 | 15.1 | 10.4
